What was measured:
Caco-2 cell line [1] = assay: Anti-proliferative assay (MTS cell proliferation assay); format: cell-based, Human; settings: Homo sapiens, maximum tested concentration 200 μmol/L
Experimental: (§1) Human colon cancer Caco-2 and SW480 cell lines were cultured and grown as previously reported. […] Incubation was carried out for 24, 48 and 72 h. Data were compared with a control solution containing 0.5% DMSO in cell medium and representing 100% proliferation. In addition, six different mixes were prepared to simulate the simultaneous presence of parent phenolic compounds and metabolites by mimicking the possible human inter-individual variability in colon metabolism of phenolic compounds. Two sets of mixes were prepared to consider the colon metabolism of quercetins and chlorogenic acids. […] For each set of mixtures (QUE and CGA mixtures), three different mixes were formulated. One set of mixes mimicked the low-producers metabotype and contained 90% parent compounds and 10% metabolites (mixes QUE-LP and CGA-LP). Another set of mixes was prepared to simulate the high-producers metabotype and contained 10% parent compounds and 90% metabolites (mixes QUE-HP and CGA-HP). Finally, a third set of mixes was prepared with equimolar amounts of all the compounds (mixes QUE-EQ and CGA-EQ). […] Cell proliferation was assessed by the MTS assay as previously described. […] The IC50 values were calculated through non-linear regression analysis by plotting the base-10 logarithm of the phenolic compound concentration vs. the percentage of inhibition.

SW480 cell line [2] = assay: as above; format: cell-based, Human; settings: for IC50: Homo sapiens, maximum tested concentration 200 μmol/L
Experimental: as §1

SW480 cells = assay: Cell cycle analysis by flow cytometry; format: cell-based, Human; settings: 72 h, concentration equal to the IC50 value, vs control
Experimental: Cell cycle analysis was carried out in both Caco-2 and SW480 cell lines as previously reported by Nicoletti et al.. Cells were seeded in 6-well plates at a density of 4000 and 8000 cells/cm^2 for Caco-2 and SW480, respectively.
After 72 h of incubation, the cells were washed with PBS, detached from the 6-well plates with 500 μL of trypsin and resuspended in 1000 μL of medium. Subsequently, they were centrifuged at 3500 rpm for 5 min. After removing the supernatant, the pellet was resuspended with 400 μL of Nicoletti’s solution (sodium citrate 0.1%, Triton X-100 0.1% and 20 μg/mL propidium iodide). After 15 min of incubation at 4 °C in the dark, cell cycle analysis was performed with an Epics XL MCL flow cytometer (Beckman Coulter, Brea, CA, USA).
The data were compared with a control solution containing 0.5% DMSO in the cell medium.

SW480 cell line [3] = assay: Cell metabolism of phenolic compounds (UHPLC-HR-MS analysis of cell media); format: in vitro ADME, Human; settings: for Concentration of substrate in cell medium: initial 50 μmol/L
Experimental: (§2) To analyze the metabolism of phenolic compounds by Caco-2 and SW480 cells, the cell culture media were withdrawn after 0, 24, 48 and 72 h of incubation. Phenolic compounds were extracted from the culture media by following the procedure reported in Sala et al.. Briefly, 100 μL of cold methanol was mixed with 100 μL of cell media and vortexed for 1 min. The mixture was then centrifuged at 10,000× g (4 °C, 5 min) and the supernatant was injected, after appropriate dilution, in an ultra-high-performance liquid chromatography high-resolution mass spectrometry system (UHPLC-HR-MS).
(§3) The HR-MS system consisted of a UHPLC Ultimate 3000 separation module, equipped with a C18 column (Acquity UPLC HSS C18 reversed phase, 2.1 × 100 mm, 1.8 μm particle size, Waters, Milan, Italy) and coupled with a Q Exactive Hybrid Quadrupole-Orbitrap Mass Spectrometer (Thermo Scientific, San Jose, CA, USA). Mobile phases consisted of a mixture of water containing formic acid (0.1%) (mobile phase A) and acetonitrile containing formic acid (0.1%) (mobile phase B). The gradient began at 1% B, reaching 40% B over 20 min. To wash the column, the mobile phase B concentration was raised to 99% over 6 min and kept at 99% for 3 min before returning to the initial conditions. The MS and MS/MS conditions are fully described in Martini et al..
(§4) Quantification was carried out by building external calibration curves with the available standard compounds.

Caco-2 cell line [4] = assay: in vitro; format: in vitro ADME; settings: human; for Concentration of substrate in cell medium: 50 μmol/L
Experimental: as §2, §3, §4

[5] = set-up: method as in PMID 33350133, doi:10.1002/fft2.50; settings: of the ingested dose; cited from earlier work

IC50 (Caco-2 cell line [1]; Caco-2, 48 h of incubation): > 200 µM
IC50 (Caco-2 cell line [1]; Caco-2, 72 h of incubation): 116 ± 4.9 µM
IC50 (SW480 cell line [2]; SW480, 48 h of incubation): 89.2 ± 3.1 µM
IC50 (SW480 cell line [2]; SW480, 72 h of incubation): 58.2 ± 2.7 µM
Decrease in IC50 value from 48 to 72 h (SW480 cell line [2]; SW480): 1.5 fold
Concentration of substrate in cell medium (SW480 cell line [3]; SW480, 24 h): 47.39 ± 1.22 µM
Concentration of newly formed metabolite (SW480 cell line [3]; SW480, 24 h, substrate Quercetin-4′-O-glucoside 50 μmol/L): 52.70 ± 2.24 µM
Concentration of substrate in cell medium (SW480 cell line [3]; SW480, 48 h): 40.37 ± 1.20 µM
Concentration of newly formed metabolite (SW480 cell line [3]; SW480, 48 h, substrate Quercetin-3-O-glucoside-4′-O-glucoside 50 μmol/L): 0.04 ± 0.00 µM
Concentration of newly formed metabolite (SW480 cell line [3]; SW480, 48 h, substrate Quercetin-4′-O-glucoside 50 μmol/L): 36.89 ± 0.52 µM
Concentration of substrate in cell medium (SW480 cell line [3]; SW480, 72 h): 14.83 ± 0.84 µM
Concentration of newly formed metabolite (SW480 cell line [3]; SW480, 72 h, substrate Quercetin-3-O-glucoside-4′-O-glucoside 50 μmol/L): 0.07 ± 0.00 µM
Concentration of newly formed metabolite (SW480 cell line [3]; SW480, 72 h, substrate Quercetin-4′-O-glucoside 50 μmol/L): 12.78 ± 0.41 µM
Decrease in cell medium concentration (Caco-2 cell line [4]; 24 h): 99.5%
Concentration of substrate in cell medium (Caco-2 cell line [4]; 24 h): 0.61 ± 0.01 µM
Concentration of substrate in cell medium (Caco-2 cell line [4]; 48 h): 0.29 ± 0.01 µM
Concentration of substrate in cell medium (Caco-2 cell line [4]; 72 h): 0.52 ± 0.02 µM
Compound: O=c1c(O)c(-c2ccc(O)c(O)c2)oc2cc(O)cc(O)c12 [Quercetin, quercetin]
Increase in the number of SW480 cells in the S phase (SW480 cells): 3.1 times
Absorption in the small intestine [5]: about 20%

— article PMC10418599, “Quercetins, Chlorogenic Acids and Their Colon Metabolites Inhibit Colon Cancer Cell Proliferation at Physiologically Relevant Concentrations” (International Journal of Molecular Sciences, 2023)
